“Also recorded” adds a separate entry of the source. Where two headings read alike, the source gives them in different places.
Tests used:
[1] = Blood-brain barrier penetration; settings: inferred from naloxone methiodide s.c. vs i.c.v. antagonism in mice
[2] = target: human delta opioid receptor (CHOhDOP) (Homo sapiens, UniProt P41143); assay: Calcium mobilization assay, CHOhDOP cells
male Kunming mice [3] = assay: Antinociceptive tolerance (tail-flick, 8 days); settings: 10 mg/kg s.c. once a day
[4] = 15% mouse brain homogenate; cited from earlier work
male Kunming mice [5] = assay: Gastrointestinal transit test (charcoal meal); assay type: in vivo, mouse (Kunming); settings: 10 mg/kg s.c.; for GIT%: 15 min before charcoal meal, 30 min, p < 0.05, lower = stronger inhibition
Description: The mice were fasted for 16 h with free access to water. Drugs were subcutaneously injected 15 min before the oral administration of a charcoal meal (an aqueous suspension of 5% charcoal and 10% gum arable). Thirty minutes after the oral administration, the animals were sacrificed. The farthest traveled distance by the charcoal meal (L1) and total length of the small intestine (L2) were measured. The GIT inhibition by analgesics was represented by GIT% = (L1/L2) × 100.

male Kunming mice [6] = assay: Naloxone-induced withdrawal response (jumping); settings: 10 mg/kg s.c.; method: 20, 40, 60, 80, 100, 100, 100 mg/kg every 8 h, naloxone 10 mg/kg
[7] = target: human mu opioid receptor (CHOhMOP) (Homo sapiens, UniProt P35372); assay: cell-based
male Kunming mice [8] = assay: Conditioned place preference; assay type: in vivo, mouse (Kunming); settings: 10 mg/kg s.c.
Description: The conditioned place preference experiment is a classical model for evaluating dependence. The device consisted of three compartments. Two large compartments (20 × 20 × 20 cm) were connected by a narrower compartment (5 × 20 × 20 cm). The large compartments were visually and tactually distinct (white walls with rough floors and black walls with smooth floors). Before the unbiased experiment, the mice were allowed to move freely for 15 min to accommodate the apparatus. On the first day, the time the mice spent in each compartment was documented within 15 min. Over the next 3 days, the mice were subcutaneously administered drugs and were limited to one of the two large compartments. Approximately 6 h later, the mice were subcutaneously injected with saline and confined to the opposite compartment. On the fifth day, the mice moved freely for 15 min, and the time spent in the drug-associated preference compartment was recorded. The conditioned place preference score was calculated as: score = time spent in the drug-associated preference compartment on the fifth day − time spent in the same compartment on the first day.

male Kunming mice [9] = assay: Acute hyperlocomotion test (open field); settings: 10 mg/kg s.c.; 150 min
male Kunming mice [10] = assay: Rotarod test; assay type: in vivo, mouse (Kunming); settings: 10 mg/kg s.c.; compared with saline
human sperm = assay: Human sperm motility in vitro; settings: 0.0001, 0.001, 0.01, 0.1, 1, or 10 µM, 4-h incubation, 37 °C, n = 5
male Kunming mice [11] = assay: Acetic acid-induced writhing test; assay type: in vivo, mouse (Kunming); settings: 0.6% acetic acid i.p.
Description: An acetic acid-induced writhing test was performed to investigate visceral pain [43]. The increase in intensity of drug analgesia would be accompanied by a decrease in the writhing number. The mice were acclimatized in a transparent acrylic chamber (20 × 20 × 30 cm) for 15–20 min. First, the mice were subcutaneously injected with drugs. Five minutes later, they were intraperitoneally injected with 0.6% acetic acid solution. Within 5–15 min after injecting acetic acid, the number of writhes was recorded. Writhe was defined as a contraction of the abdominal muscles and stretching of the hind limbs.

male Kunming mice [12] = assay: Carrageenan-induced inflammatory pain; assay type: in vivo, mouse (Kunming); settings: s.c.
male Kunming mice [13] = assay: Formalin test; assay type: in vivo, mouse (Kunming); settings: phase I 0–5 min
Description: The formalin test was conducted to explore a characteristic biphasic pain response. The better the analgesic effect in mice, the shorter the average licking/biting/shaking paw time. The mice were acclimated in a transparent plexiglass chamber (20 × 20 × 30 cm) for 15–20 min. First, the mice received a subcutaneous injection of drugs. Five minutes later, 20 μL of 5% formalin was administered by intraplantar injection to the right hind paw. The mice were immediately placed back in the chamber. Simultaneously, the time spent licking, biting, and shaking the injected paw was recorded within 0–5 and 15–30 min.

male Kunming mice [14] = assay: Radiant heat tail-flick test; assay type: in vivo, mouse (Kunming); settings: for ED50: Mus musculus, sc
Excerpt: The radiant heat tail-flick test has been widely used as an acute pain model to examine the effects of analgesics. The mice were gently stabilized by hand, and the dorsal surface of the tail, 3 cm from the distal end, was placed on a radiant heat source. The cutoff time was set to 10 s to avoid tissue damage. Radiant heat intensity was adapted to engender a basal latency within 3–5 s in naive mice. Tail-flick latency was defined as the time when the mouse flicked its tail away from the radiant heat source. The data of antinociceptive effects for each animal after treatment were calculated as a percentage of the maximal possible effect (MPE%): MPE (%) = 100 × [(postdrug response − baseline response)/(cutoff response − baseline response)]. The MPE% from each animal was converted to an area under the curve (AUC).
Statistical significance was set at p < 0.05.

[15] = cited from earlier work
DOR = settings: cited from earlier work
KOR = settings: cited from earlier work
Excerpt: Table 2 The actions of agonists and antagonists at opioid receptors. | column: Ki^(KOR) (nM)

opioid receptors = settings: cited from earlier work
MOR = settings: cited from earlier work
mice = test system: mice; parameters: method as in 2 sources, ref 9 = [9]; PMID 9087409; doi:10.1038/386499a0; 9. Zadina J.E. Hackler L. Ge L.-J. Kastin A.J.J.N. A potent and selective endogenous agonist for the µ-opiate receptor Nature 1997 386 499 502 10.1038/386499a0 9087409 ||| ref 16 = [16]; PMID 31444977; doi:10.1111/bph.14848; 16. Xu B. Zhang M. Shi X. Zhang R. Chen D. Chen Y. Wang Z. Qiu Y. Zhang T. Xu K. The multifunctional peptide DN-9 produced peripherally acting antinociception in inflammatory and neuropathic pain via; settings: cited from earlier work

Chain of human delta opioid receptor (CHOhDOP) (P41143 whole entry): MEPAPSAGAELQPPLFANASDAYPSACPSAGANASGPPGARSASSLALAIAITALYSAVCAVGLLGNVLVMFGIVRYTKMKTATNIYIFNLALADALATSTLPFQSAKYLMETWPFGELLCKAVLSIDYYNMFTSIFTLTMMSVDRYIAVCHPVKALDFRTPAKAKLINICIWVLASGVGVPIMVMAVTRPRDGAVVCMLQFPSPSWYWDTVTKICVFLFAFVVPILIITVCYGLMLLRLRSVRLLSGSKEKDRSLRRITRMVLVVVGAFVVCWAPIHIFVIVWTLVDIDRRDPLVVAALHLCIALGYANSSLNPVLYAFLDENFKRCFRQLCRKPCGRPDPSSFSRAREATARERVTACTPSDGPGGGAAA
Chain of human mu opioid receptor (CHOhMOP) (P35372 whole entry): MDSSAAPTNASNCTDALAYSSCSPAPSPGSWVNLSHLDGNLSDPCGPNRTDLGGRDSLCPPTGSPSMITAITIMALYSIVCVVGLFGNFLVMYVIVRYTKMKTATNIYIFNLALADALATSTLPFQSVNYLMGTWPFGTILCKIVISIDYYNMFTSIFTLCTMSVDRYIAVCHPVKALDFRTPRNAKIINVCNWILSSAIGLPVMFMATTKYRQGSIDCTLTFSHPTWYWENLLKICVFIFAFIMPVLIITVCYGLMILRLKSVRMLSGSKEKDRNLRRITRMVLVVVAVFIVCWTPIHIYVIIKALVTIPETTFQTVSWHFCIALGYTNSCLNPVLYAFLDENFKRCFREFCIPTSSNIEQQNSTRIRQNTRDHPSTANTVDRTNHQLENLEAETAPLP

## C[C@@H](NC(=O)[C@@H](N)Cc1ccc(O)cc1)C(=O)NCC(=O)N[C@@H](Cc1ccccc1)C(N)=O [HAGD, H-Tyr-D-AIa-GIy-Phe-NH2]
[1]
  BBB permeability: poor BBB permeability; also recorded: poor ability of HAGD to penetrate the BBB into the CNS
[2]
  EC50: 2630 nM
[2]; read-out: Emax ± S.E.M.
  Emax: 110 ± 7.21%
Male Kunming mice [3]
  antinociceptive tolerance: non-tolerance antinociception for 8 consecutive days; also recorded: non-tolerance antinociception for eight consecutive days
[4]
  half-life in brain homogenate: 4.3288 ± 0.6835 h
Male Kunming mice [5]
  gastrointestinal transit (in words): significant delay compared with saline
  GIT%: 44.83 ± 4.14%
Male Kunming mice [6]
  withdrawal response: significant withdrawal response; also recorded: significant physical dependence
[7]
  Emax: 103 ± 1.58%
[7]; CHOhMOP, duplicate, repeated at least three times
  EC50: 81.7 nM
Male Kunming mice [8]
  conditioned place preference (in words): did not induce a place preference change; also recorded: substantial difference in the conditioned place preference scores between the HAGD and morphine groups
Male Kunming mice [9]
  locomotor activity (in words): did not show an apparent effect on locomotion compared with saline
Male Kunming mice [10]
  endurance time on rotating rod (in words): no significant difference in the endurance time
Human sperm
  sperm progressive motility (PR), HAGD (in words): did not produce significant changes in sperm PR; also recorded: did not have a significant negative effect on human sperm motility

## CN1CC[C@]23c4c5ccc(O)c4O[C@H]2[C@@H](O)C=C[C@H]3[C@H]1C5 [morphine]
Male Kunming mice [3]
  antinociceptive tolerance: decreased significantly from days 5 to 8; also recorded: produced antinociceptive tolerance in the tail-flick test
Male Kunming mice [11]; 1 mg/kg s.c., 5–15 min, mean ± S.E.M., saline 34 ± 2.49
  average writhing number: 4.60 ± 2.43
Male Kunming mice [11]; s.c.
  inhibition of writhing response (in words): inhibited the writhing response
Male Kunming mice [5]
  gastrointestinal transit (in words): significantly weakened the GIT and exhibited a greater inhibitory effect than HAGD
  GIT%: 24.11 ± 3.79%
Male Kunming mice [6]
  withdrawal response: significant withdrawal response; also recorded: significant physical dependence
Male Kunming mice [8]
  conditioned place preference (in words): significant place preference change
Male Kunming mice [8]; mean ± S.E.M.
  conditioned place preference score: 140.50 ± 43.96
Male Kunming mice [12]; carrageenan-treated mice
  duration of anti-allodynic activity: 60 min
Male Kunming mice [12]; post-injection
  time of peak anti-allodynic effect: 30 min
Male Kunming mice [13]; 10 mg/kg s.c., 5% formalin intraplantar, mean ± S.E.M., p < 0.05, lower = better
  formalin test phase I response: 67.36 ± 3.93
Male Kunming mice [13]; s.c., morphine 10 mg/kg, phase II 15–30 min
  formalin-induced nociceptive responses, phases I and II (in words): attenuated nociceptive responses in both phases I and II
Male Kunming mice [14]; mice, equivalent of the mg/kg value, read-out: antinociceptive ED50 (molar equivalent)
  ED50: 16.3 µmol/kg
Male Kunming mice [14]; read-out: antinociceptive ED50
  ED50: 5.24 mg/kg
Male Kunming mice [14]; s.c., mice
  time of peak tail-flick latency: 30 min
Male Kunming mice [9]
  locomotor activity (in words): enhanced the locomotor activity of mice and significantly increased the total distance traveled compared with saline or HAGD

## C=CC[N+]1(C)CC[C@]23c4c5ccc(O)c4O[C@H]2C(=O)CC[C@@]3(O)[C@H]1C5 (stereo partly shown) [naloxone methiodide]
[15]; opioid receptor antagonist
  peripheral restriction: peripherally restricted
DOR
  Ki: 1010 nM
KOR
  Ki: 204 nM
Opioid receptors
  Antagonist (receptors): MOR DOR KOR
MOR
  Ki: 28.9 nM

## Oc1ccc2c3c1O[C@H]1c4[nH]c5ccccc5c4C[C@@]4(O)[C@@H](C2)N(CC2CC2)CC[C@]314 [naltrindole]
DOR
  Ki: 0.02 nM
Opioid receptors
  Antagonist (receptors): DOR

## Oc1ccc2c3c1O[C@H]1c4[nH]c5c(c4C[C@@]4(O)[C@@H](C2)N(CC2CC2)CC[C@]314)C[C@@]1(O)[C@H]2Cc3ccc(O)c4c3[C@@]1(CCN2CC1CC1)[C@H]5O4 [nor-binaltorphimine]
Opioid receptors
  Antagonist (receptors): KOR

## COC(=O)/C=C/C(=O)N[C@@H]1CC[C@@]2(O)[C@H]3Cc4ccc(O)c5c4[C@@]2(CCN3CC2CC2)[C@H]1O5 [β-funaltrexamine]
Opioid receptors
  Antagonist (receptors): The inhibition constant (Ki) represented the agonist or antagonist affinity. ^a Drug dosage was in mg/kg (or µmol/kg) for each animal (subcutaneously). ^b β-funaltrexamine binds covalently to MOR. MOR, mu opioid receptor; DOR, delta opioid receptor; KOR, kappa opioid receptor. nM, nmol/L; also recorded: MOR ^b
MOR; binds covalently to MOR
  Ki: 0.3 nM

## Tyr1-Pro2-Phe3-Phe4-NH2 [endomorphin-2]
MOR
  selectivity for MOR: highly selective for MORs
mice
  antinociception compared with morphine: more potent and prolonged antinociception than morphine in mice

## Tyr1-Pro2-Trp3-Phe4-NH2 [endomorphin-1]
[15]; into the CNS as an analgesic
  BBB crossing: inability of endomorphin-1 to cross the blood–brain barrier (BBB)
[4]
  half-life in brain homogenate: 0.3923 ± 0.00417 h
MOR
  selectivity for MOR: highly selective for MORs
mice
  antinociception compared with morphine: more potent and prolonged antinociception than morphine in mice
